Measurements published in US10647680B2, “Urea compound, preparation method therefor and medical use thereof” (Ancureall Pharmaceutical (Shanghai) Co., Ltd., priority 2016, dated 2020).

Experiments:
Type in all cases: cell-based
[1] = test system: A375 (BRAF V600E mutant type); experiment: In vitro growth inhibition (GI50), A375; settings: Homo sapiens, A-375
Description: (§1) Tumor cell line is an effective cell model for studying the inhibition of tumor cell growth or proliferation in vitro. In the present invention, a representative tumor cell line was selected to determine the cell growth inhibition activity of the present compound. All cell lines used were from ATCC, DSMZ, and the Cell Bank of the Chinese Academy of Sciences. Cell culture conditions and methods were in accordance with the requirements of each cell line. Cells were subcultured in vitro for no more than 3 passages each time, and as required, single-clone purification and identification of cell lines could be carried out.
(§2) The cell culture media used were RPMI1640 (Gibco), MEM (Gibco), McCOY'S5A (Gibco), and IMDM (Gibco). The complete medium was prepared by supplement with 5˜20% fetal calf serum (Gibco), 1% double-antibiotics (10000 units/mL penicillin and 10000 units/mL), 2 mM glutamine or 1 mM sodium pyruvate, respectively.
(§3) Human large cell lung cancer cell NCI-H460 (KRAS […] mutant type, ATCC), human non-small cell lung cancer cell line H1299 (NRAS Q61K mutant type, ATCC), human melanoma cell line A375 (BRAF V600E mutant type, Shanghai Cell Bank of Chinese Academy of Sciences), human colon cancer cell line HCT116 (KRAS G13D mutant type, Shanghai Cell Bank, Chinese Academy of Sciences) were cultured in a complete medium of 1×RPMI1640 (10% FBS), respectively. Human non-small cell lung cancer cells A549 (KRAS G12S mutant type, Shanghai Cell Bank, Chinese Academy of Sciences) were cultured in a complete medium of 1× Ham's supplemented with 10% FBS, 1% double antibody, and 2 mM glutamine.
(§4) Adherent cells were digested with 0.25% pancreatin-EDTA (Gibco). The suspension cells were collected by centrifugation. The supernatant was discarded and the cell pellet was resuspended and counted. Different cell concentrations (5˜10×10^4 cells/mL) were prepared according to the growth cycle of each cell line and then seeded on a 96-well plate (Corning), 100 μL/well. The cells were incubated overnight at 37° C., 5% CO2. The compounds were added to the cells on the second day with 2 wells in parallel. The final concentration of organic solvent shall not exceed 1%. The cells were continually incubated for 3 to 5 days, and then subjected to MTT assay.
(§5) The compound of the present invention and the control compound were dissolved in DMSO (Sigma) respectively, with the purity of more than 98%. The compound was stored in a concentration of 10 mM at −20° C. and diluted to 2- or 10-fold series prior to use.
(§6) Dojindo CCK8 reagent kit was used as MTT assay. THERMO […] FC meter was used as microplate reader.
(§7) For adherent cells, culture medium was removed and immediately replaced with the fresh prepared medium which contains 10% CCK8 reagent (100 μL/well). For the suspension cells, CCK8 was directly added to 10% of the final concentration. The cells were continually incubated for 1˜4 h. When a dark yellow color could be observed in the solvent control wells, the absorbance value at OD450 nm was measured and the cell growth rate was calculated according to the following formula: Cell Growth Rate (%)=100*(T−T0)/(C−T0) T=optical density of drug treatment cell well—optical density of blank control well; T0=optical density of cell well before drug treatment—optical density of blank control well; C=optical density of cell well of solvent control group—optical density of blank control well. The concentration value of 50% inhibition of cell growth (GI50) was calculated according to the drug concentration and cell growth rate curve. The experiment was independently repeated 1˜3 times, and subject to biological statistical analysis. 4. Experimental Results
(§8) Tumor cell growth inhibition test was performed by selecting representative compounds (compounds 4, 11, 12, 16, 27, 68, 71, 77, 79, 89 and 116 of the present invention). The initial concentration of the compound was 5,000 nM, then it was serially diluted by 2-fold or 10-fold to 0.01 nM. […]

AU565 (HER2/ErbB2 amp) = experiment: In vitro growth inhibition (GI50), AU565; settings: Homo sapiens
Description: as §1, §2
Human gastric cancer cell line NCI-N87 (HER2/ErbB2 amp, ATCC), human breast cancer cell line HCC1954 (HER2/ErbB2 amp, ATCC) and ZR-75-30 (HER2/ErbB2 amp, ATCC), human adenocarcinoma cell line AU565 (HER2/ErbB2 amp, ATCC), human lung squamous cell carcinoma cell line NCI-H2170 (HER2/ErbB2 amp, ATCC), human bronchioalveolar adenocarcinoma cell line NCI-H1781 (HER2/ErbB2 Ins G776V,C mutant type, ATCC) were cultured with a 1×RPMI1640 complete medium (10% FBS), respectively. Human lung adenocarcinoma cell line Calu-3 (HER2/ErbB2 amp, ATCC) was cultured with 1×MEM, 10% FBS, 1% double antibody, 1% NEAA (Gibco), 2 mM glutamine and 1 mM sodium pyruvate. The human breast cancer cell line SK-BR-3 (HER2/ErbB2 amp, ATCC) was cultured with a McCOY'S5A complete medium (10% FBS).
as §4, §5, §6, §7
Tumor cell growth inhibition test was performed by selecting representative compounds (compounds 4, 11, 12, 16, 27, 68, 71, 77, 79, 89 and 116 of the present invention). […]

[2] = test system: SH-SY5Y (expressing ALK F1174L mutant protein); experiment: In vitro growth inhibition (GI50), SH-SY5Y; settings: Homo sapiens
Description: as §1, §2
Human non-small cell lung cancer cell line NCI-H2228 (expressing EML4-ALK fusion gene, ATCC) and human anaplastic large cell lymphoma cell line Karpas-299 (expressing NPM-ALK fusion gene, ATCC) were cultured in complete medium comprising 1×RPMI1640 (10% FBS), respectively. Neuroblastoma cell line SH-SY5Y (expressing ALK F1174L mutant protein, Shanghai Cell Bank, Chinese Academy of Sciences) was cultured in MEM complete medium (1×MEM, 10% FBS, 1% NEAA, 1 mM sodium pyruvate).
as §4, §5, §6, §7
Tumor cell growth inhibition test was performed by selecting representative compounds (compounds 4, 11, 12, 16, 27, 68, 71, 77, 79, 89 and 116 of the present invention). The initial concentration of the compound was 5,000 nM, then it was serially diluted by 2-fold or 10-fold to 0.01 nM. The GI50 value of each test compound was calculated according to the GI50 assay and calculation method. The experiments were repeated 1 to 3 times, and data were subjected to biological statistical analysis.

[3] = test system: HCT116 (KRAS G13D mutant type); experiment: In vitro growth inhibition (GI50), HCT116; settings: Homo sapiens, HCT-116
Description: as §1, §2, §3, §4, §5, §6, §7, §8

Measured: GI50

CC(C)(C)c1cc(NC(=O)Nc2ccc(-n3cnc4cc(O)ccc43)cc2)no1 [Compound 4, 1-(5-tert-butyl-isoxazol-3-yl)-3-[4-(5-hydroxy-benzimidazol-1-yl)-phenyl]-urea]
> 2500 nM: all assays above

CC(C)(C)c1cc(NC(=O)Nc2ccc(-n3cnc4cc(OCCO)ccc43)cc2)no1 [Compound 11, 1-(5-tert-butyl-isoxazol-3-yl)-3-{4-[5-(2-hydroxy-ethoxyl)-benzimidazol-1-yl]-phenyl]-urea]
> 2500 nM: all assays above

CC(C)(C)c1cc(NC(=O)Nc2ccc(-n3cnc4cc(OCCN5CCOCC5)ccc43)cc2)no1 [Compound 16, 1-(5-tert-butyl-isoxazol-3-yl)-3-{4-[5-(2-morpholin-4-yl-ethoxyl)-benzimidazol-1-yl]-phenyl}-urea]
> 2500 nM: all assays above

CC(C)(C)c1cc(NC(=O)Nc2ccc(-n3cnc4ccc(OCCN5CCOCC5)cc43)cc2)no1 [Compound 27, 1-(5-tert-butyl-isoxazol-3-yl)-3-{4-[6-(2morpholin-4-yl-ethoxyl)-benzimidazol-1-yl]-phenyl}-urea]
> 2500 nM: all assays above

CC(C)(C)c1cc(NC(=O)Nc2ccc(-n3cnc4ccccc43)cc2)[nH]n1 [Compound 68, 1-(4-benzimidazol-1-yl-phenyl)-3-(5-tert-butyl-2H-pyrazol-3-yl)-urea]
> 2500 nM: all assays above

COc1ccc2c(c1)ncn2-c1ccc(NC(=O)Nc2cc(C(C)(C)C)n[nH]2)cc1 [Compound 71, 1-(5-tert-butyl-2H-pyrazol-3-yl)-3-[4-(5-methoxyl-benzimidazol-1-yl)-phenyl]-urea]
> 2500 nM: all assays above

COCCOc1ccc2c(c1)ncn2-c1ccc(NC(=O)Nc2cc(C(C)(C)C)n[nH]2)cc1 [Compound 77, 1-(5-tert-butyl-2H-pyrazol-3-yl)-3-{4-[5-(2-methoxyl-ethoxyl)-benzimidazol-1-yl]-phenyl}-urea]
> 2500 nM: all assays above

CC(C)(C)c1cc(NC(=O)Nc2ccc(-n3cnc4cc(OCCO)ccc43)cc2)[nH]n1 [Compound 79, 1-(5-tert-butyl-2H-pyrazol-3-yl)-3-{4-[5-(2-hydroxy-ethoxyl)-benzimidazol-1-yl]-phenyl]urea]
> 2500 nM: all assays above

CC(C)(C)c1cc(NC(=O)Nc2ccc(-n3cnc4cc(OCCN5CCOCC5)ccc43)cc2)[nH]n1 [Compound 89, 1-(5-tert-butyl-2H-pyrazol-3-yl)-3-{4-[5-(2-morpholin-4-yl-ethoxyl)-benzimidazol-1-yl]-phenyl}-urea]
> 2500 nM: all assays above

CC(C)(C)c1cc(N)n(C(=O)Nc2ccc(-n3cnc4ccccc43)cc2)n1 [Compound 116, 5-amino-3-tert-butyl-pyrazol-1-carboxylic acid (4-benzimidazol-1-yl-phenyl)-amide]
> 2500 nM: all assays above
